# Test results from patent publication US12016335B2, “Stabilized low-concentration metsulfuron-methyl liquid composition” (FMC CORPORATION, priority 2013, dated 2024).
# Experiment: Chemical stability of metsulfuron-methyl and thifensulfuron-methyl during aging of compositions at 40° C. (HPLC)
# Type: physicochemical
# Protocol: When prepared, the compositions were analyzed by HPLC for metsulfuron-methyl and thifensulfuron-methyl content. The stability of metsulfuron-methyl and thifensulfuron-methyl in the compositions prepared was then determined by aging samples in ovens at 40° C. for 4 and 8 weeks. Storage at 40° C. at 8 weeks simulates two-year storage at ambient temperature. Control samples were stored in a freezer at −6° C. […] At the end of the allotted times, samples were removed from the ovens and analyzed by HPLC for metsulfuron-methyl or thifensulfuron-methyl content. The relative chemical stability was calculated by dividing the assay of the oven-aged sample by that of the control sample analyzed on the same day.
smiles,measurement,value
"COC(=O)c1sccc1S(=O)(=O)NC(=O)Nc1nc(C)nc(OC)n1 [thifensulfuron-methyl, methyl 3-[[[[(4-methoxy-6-methyl-1,3,5-triazin-2-yl)amino]carbonyl]amino]-sulfonyl]-2-thiophenecarboxylate]",stability of the thifensulfuron-methyl component itself,excellent stability
